The results in this text go back to the NIST ThermoML archive (doi:10.1016/j.tca.2011.12.010).

For data set [1] the following is noted: DTA.
Data set [2] is described as follows: Molar enthalpy of transition or fusion. The conditions noted are these: DSC.

± gives the expanded uncertainty stated by the source.

For the compound `O=[N+]([O-])[O-].O=[N+]([O-])[O-].O=[N+]([O-])[O-].O=[N+]([O-])[O-].[K+].[K+].[Mg+2]` [bis-potassium magnesium nitrate], the figures for the Triple point temperature in data set [1] (Crystal 1) and in data set [1] (Crystal 2) were 468.85 ± 0.5 K and 404.8 ± 0.5 K, respectively. For the same compound, the “Molar enthalpy of transition or fusion” value in data set [2] (Crystal 1) worked out at 20.7 ± 0.63 kJ/mol; in data set [2] (Crystal 2), 2.71 ± 0.2 kJ/mol.
